Test results taken from patent publication US6316482A, “Benzamide derivatives having a vasopressin antagonistic activity” (Fujisawa Pharmaceutical Co., Ltd., priority 1996, dated 2001).
pIC50: −log10 of the molar value. Counter-ions that a name gives are not always drawn.

Assays:
human V2 receptor = human V2 receptor (Homo sapiens, UniProt P30518); assay: Vasopressin 2 (V2) receptor binding; settings: membranes of CHO cells expressing human V2 receptor; competition vs 0.5 nM 3H-vasopressin; 2 hours at 22° C.; pH 7.4
[1] = molecular target: Vasopressin 1 (V1) receptor (Homo sapiens, UniProt P37288); assay: Vasopressin 1 (V1) receptor binding; settings: platelet membranes from normal subjects; competition vs 1.5 nM 3H-vasopressin; 15 minutes at 30° C.; pH 7.4
Sequence of Vasopressin 1 (V1) receptor (P37288 whole entry): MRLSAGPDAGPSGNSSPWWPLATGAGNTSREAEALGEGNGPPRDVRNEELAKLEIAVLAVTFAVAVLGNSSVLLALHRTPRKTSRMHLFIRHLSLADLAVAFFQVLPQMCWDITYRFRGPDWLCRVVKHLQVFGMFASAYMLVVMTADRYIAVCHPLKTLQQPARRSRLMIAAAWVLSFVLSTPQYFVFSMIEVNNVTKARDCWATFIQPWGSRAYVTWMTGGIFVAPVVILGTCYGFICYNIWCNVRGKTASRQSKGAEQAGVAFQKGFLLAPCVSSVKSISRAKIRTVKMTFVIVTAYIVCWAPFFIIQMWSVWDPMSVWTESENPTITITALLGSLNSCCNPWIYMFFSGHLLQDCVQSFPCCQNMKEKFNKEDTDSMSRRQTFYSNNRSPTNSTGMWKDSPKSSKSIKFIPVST

Sequence of human V2 receptor (P30518 whole entry): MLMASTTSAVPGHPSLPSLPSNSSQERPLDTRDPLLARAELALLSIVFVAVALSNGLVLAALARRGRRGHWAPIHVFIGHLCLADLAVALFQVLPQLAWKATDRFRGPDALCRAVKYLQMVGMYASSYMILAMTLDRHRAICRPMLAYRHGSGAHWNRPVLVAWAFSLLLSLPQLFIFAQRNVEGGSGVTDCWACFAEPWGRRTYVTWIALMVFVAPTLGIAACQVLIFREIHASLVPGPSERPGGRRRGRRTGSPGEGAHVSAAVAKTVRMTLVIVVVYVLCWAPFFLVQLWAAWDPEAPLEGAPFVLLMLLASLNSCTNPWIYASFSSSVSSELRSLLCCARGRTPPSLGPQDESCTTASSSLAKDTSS

pIC50 (human V2 receptor)	pIC50 [1]	Structure (SMILES)
6.34	8.82	COc1cc(C(=O)N(C)c2ccc(C)cc2OCCCCCC(=O)N2CCN(C)CC2)ccc1NC(=O)c1cccc2[nH]c(CN)nc12 [Example 39-27, 4-(2-Aminomethyl-1H-benzimidazol-4-yl)carbonylamino-3-methoxy-N-methyl-N-[4-methyl-2-[5-(4-methylpiperazin-1-yl)carbonylpent-1-yloxy]phenyl]benzamidetrihydrochloride]
6.42	> 9.00	COc1cc(C(=O)N(C)c2ccc(C)cc2OCCCCCC(=O)N2CCN(C)CC2)ccc1NC(=O)c1cccc2[nH]c(CO)nc12 [Example 39-35, 4-(2-Hydroxymethyl-1H-benzimidazol-4-yl)carbonylamino-3-methoxy-N-methyl-N-[4-methyl-2-[5-(4-methylpiperazin-1-yl)carbonylpent-1-yloxy]phenyl]benzamide dihydrochloride]
	9.15	COc1cc(C(=O)N(C)c2ccc(C)cc2OCCCCCC(=O)N2CCN(C)CC2)ccc1C(=O)Nc1cccc2[nH]c(C)nc12 [Example 115-71, 3-Methoxy-N-methyl-4-[2-mehtyl-1H-benzimidazol-4-yl]carbamoyl-N-[4-methyl-2-[5-(4-methylpiperazin-1-yl)-carbonylpent-1-yloxy]phenyl]benzamide dihydrochloride]
	8.35	COc1cc(C(=O)N(C)c2ccc(C)cc2OCCCCCC(=O)N2CCN(C)CC2)ccc1C(=O)Nc1cccc2[nH]c(CN3CCN(C)CC3)nc12 [Example 115-81, 3-Methoxy-N-methyl-N-[4-methyl-2-[5-(4-methylpiperazin-1-yl)carbonylpent-1-yloxy]phenyl]-4-[2-[(4-methyl-piperazin-1-yl)methyl]-1H-benzimidazol-4-yl]-carbamoylbenzamide trihydrochloride]
